SMILES strings stand for the structures.

In the first assay the test system is EPLC-272H. The assay is described as follows: relative viability (nuclei count vs DMSO), 5 days (fraction); higher = more cells survive. Particulars: first compound 0.8 µM. In a few lines: (§1)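 Dosing by pin tool came one day after lung cancer cell lines were seeded in 1536-well plates, using either one drug or a fixed anchor-drug dose plus five library-drug doses (not always all listed) in √10 steps. After 5 days, nuclei were counted on 4× images. Relative viability is treated-well nuclei count divided by vehicle-well nuclei count, and values are medians of duplicate plates.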
Regarding `CCCCCCCCCCCC1=C(O)C(=O)C=C(O)C1=O` [Embelin] + CC(=O)Nc1cccc(-n2c(=O)n(C3CC3)c(=O)c3c(Nc4ccc(I)cc4F)n(C)c(=O)c(C)c32)c1 [Trametinib] (partner 0.02 µM), the relative viability is 0.282.

For the molecule `CCCCCCCCCCCC1=C(O)C(=O)C=C(O)C1=O` [Embelin] + Nc1ncn([C@H]2C[C@H](O)[C@@H](CO)O2)c(=O)n1 [Decitabine] (partner 2 µM), the relative viability stood at 0.401.

For `CCCCCCCCCCCC1=C(O)C(=O)C=C(O)C1=O` [Embelin] + COc1cccc2cc(-c3nc([C@H]4CC[C@H](C(=O)O)CC4)n4ncnc(N)c34)[nH]c12 [OSI-027] (partner 0.5 µM), the relative viability was 0.319.

`CCCCCCCCCCCC1=C(O)C(=O)C=C(O)C1=O` [Embelin] + Nc1nc2[nH]cc(CCc3ccc(C(=O)N[C@@H](CCC(=O)O)C(=O)O)cc3)c2c(=O)[nH]1 [Pemetrexed] (partner 0.2 µM) displayed a relative viability of 0.302.

Still in this assay, the particulars now being: first compound 2.53 µM.
`CCCCCCCCCCCC1=C(O)C(=O)C=C(O)C1=O` [Embelin] + Cc1cc(Nc2cc(N3CCN(C)CC3)nc(Sc3ccc(NC(=O)C4CC4)cc3)n2)n[nH]1 [Tozasertib] (partner 0.1 µM): the relative viability is 0.277.

As to `CCCCCCCCCCCC1=C(O)C(=O)C=C(O)C1=O` [Embelin] + CC(=O)Nc1cccc(-n2c(=O)n(C3CC3)c(=O)c3c(Nc4ccc(I)cc4F)n(C)c(=O)c(C)c32)c1 [Trametinib] (partner 0.02 µM), the relative viability came out at 0.296.

Molecule `CCCCCCCCCCCC1=C(O)C(=O)C=C(O)C1=O` [Embelin] + Nc1ncn([C@H]2C[C@H](O)[C@@H](CO)O2)c(=O)n1 [Decitabine] (partner 2 µM) came in with a relative viability of 0.355.

For `CCCCCCCCCCCC1=C(O)C(=O)C=C(O)C1=O` [Embelin] + COc1cccc2cc(-c3nc([C@H]4CC[C@H](C(=O)O)CC4)n4ncnc(N)c34)[nH]c12 [OSI-027] (partner 0.5 µM), the relative viability worked out at 0.309.

`CCCCCCCCCCCC1=C(O)C(=O)C=C(O)C1=O` [Embelin] + Nc1nc2[nH]cc(CCc3ccc(C(=O)N[C@@H](CCC(=O)O)C(=O)O)cc3)c2c(=O)[nH]1 [Pemetrexed] (partner 0.2 µM) came in with a relative viability of 0.331.

Staying with this assay, now noted: first compound 8 µM.
In the case of `CCCCCCCCCCCC1=C(O)C(=O)C=C(O)C1=O` [Embelin] + Cc1cc(Nc2cc(N3CCN(C)CC3)nc(Sc3ccc(NC(=O)C4CC4)cc3)n2)n[nH]1 [Tozasertib] (partner 0.1 µM), the relative viability is 0.22.

For the molecule `CCCCCCCCCCCC1=C(O)C(=O)C=C(O)C1=O` [Embelin] + CC(=O)Nc1cccc(-n2c(=O)n(C3CC3)c(=O)c3c(Nc4ccc(I)cc4F)n(C)c(=O)c(C)c32)c1 [Trametinib] (partner 0.02 µM), the relative viability was found to be 0.253.

With `CCCCCCCCCCCC1=C(O)C(=O)C=C(O)C1=O` [Embelin] + Nc1ncn([C@H]2C[C@H](O)[C@@H](CO)O2)c(=O)n1 [Decitabine] (partner 2 µM), the relative viability is 0.367.

Regarding `CCCCCCCCCCCC1=C(O)C(=O)C=C(O)C1=O` [Embelin] + COc1cccc2cc(-c3nc([C@H]4CC[C@H](C(=O)O)CC4)n4ncnc(N)c34)[nH]c12 [OSI-027] (partner 0.5 µM), the relative viability is 0.255.

Regarding `CCCCCCCCCCCC1=C(O)C(=O)C=C(O)C1=O` [Embelin] + Nc1nc2[nH]cc(CCc3ccc(C(=O)N[C@@H](CCC(=O)O)C(=O)O)cc3)c2c(=O)[nH]1 [Pemetrexed] (partner 0.2 µM), the relative viability is 0.247.

The subject of the next assay is NCI-H2087. The assay is described as above. The following applies: first compound 0.08 µM. In outline: as §1
Molecule `CCCCCCCCCCCC1=C(O)C(=O)C=C(O)C1=O` [Embelin] + Cc1cc(Nc2cc(N3CCN(C)CC3)nc(Sc3ccc(NC(=O)C4CC4)cc3)n2)n[nH]1 [Tozasertib] (partner 0.1 µM) displayed a relative viability of 0.28.

`CCCCCCCCCCCC1=C(O)C(=O)C=C(O)C1=O` [Embelin] + CC(=O)Nc1cccc(-n2c(=O)n(C3CC3)c(=O)c3c(Nc4ccc(I)cc4F)n(C)c(=O)c(C)c32)c1 [Trametinib] (partner 0.02 µM) yielded a relative viability of 0.147.

`CCCCCCCCCCCC1=C(O)C(=O)C=C(O)C1=O` [Embelin] + Nc1ncn([C@H]2C[C@H](O)[C@@H](CO)O2)c(=O)n1 [Decitabine] (partner 2 µM) displayed a relative viability of 0.278.

`CCCCCCCCCCCC1=C(O)C(=O)C=C(O)C1=O` [Embelin] + COc1cccc2cc(-c3nc([C@H]4CC[C@H](C(=O)O)CC4)n4ncnc(N)c34)[nH]c12 [OSI-027] (partner 0.5 µM) registered a relative viability of 0.5.

Turning to `CCCCCCCCCCCC1=C(O)C(=O)C=C(O)C1=O` [Embelin] + Nc1nc2[nH]cc(CCc3ccc(C(=O)N[C@@H](CCC(=O)O)C(=O)O)cc3)c2c(=O)[nH]1 [Pemetrexed] (partner 0.2 µM), the relative viability came to 0.745.

The assay is the same for the next values; noted with them: first compound 0.8 µM.
In turn, `CCCCCCCCCCCC1=C(O)C(=O)C=C(O)C1=O` [Embelin] + Cc1cc(Nc2cc(N3CCN(C)CC3)nc(Sc3ccc(NC(=O)C4CC4)cc3)n2)n[nH]1 [Tozasertib] (partner 0.1 µM) yielded a relative viability of 0.308.

`CCCCCCCCCCCC1=C(O)C(=O)C=C(O)C1=O` [Embelin] + CC(=O)Nc1cccc(-n2c(=O)n(C3CC3)c(=O)c3c(Nc4ccc(I)cc4F)n(C)c(=O)c(C)c32)c1 [Trametinib] (partner 0.02 µM): the relative viability came to 0.225.

Turning to `CCCCCCCCCCCC1=C(O)C(=O)C=C(O)C1=O` [Embelin] + Nc1ncn([C@H]2C[C@H](O)[C@@H](CO)O2)c(=O)n1 [Decitabine] (partner 2 µM), the relative viability came to 0.295.

Molecule `CCCCCCCCCCCC1=C(O)C(=O)C=C(O)C1=O` [Embelin] + COc1cccc2cc(-c3nc([C@H]4CC[C@H](C(=O)O)CC4)n4ncnc(N)c34)[nH]c12 [OSI-027] (partner 0.5 µM) gave a relative viability of 0.543.

The molecule `CCCCCCCCCCCC1=C(O)C(=O)C=C(O)C1=O` [Embelin] + Nc1nc2[nH]cc(CCc3ccc(C(=O)N[C@@H](CCC(=O)O)C(=O)O)cc3)c2c(=O)[nH]1 [Pemetrexed] (partner 0.2 µM) registered a relative viability of 0.517.

Staying with this assay, now noted: first compound 2.53 µM.
The molecule `CCCCCCCCCCCC1=C(O)C(=O)C=C(O)C1=O` [Embelin] + Cc1cc(Nc2cc(N3CCN(C)CC3)nc(Sc3ccc(NC(=O)C4CC4)cc3)n2)n[nH]1 [Tozasertib] (partner 0.1 µM) yielded a relative viability of 0.222.

The molecule `CCCCCCCCCCCC1=C(O)C(=O)C=C(O)C1=O` [Embelin] + CC(=O)Nc1cccc(-n2c(=O)n(C3CC3)c(=O)c3c(Nc4ccc(I)cc4F)n(C)c(=O)c(C)c32)c1 [Trametinib] (partner 0.02 µM) came in with a relative viability of 0.233.

With `CCCCCCCCCCCC1=C(O)C(=O)C=C(O)C1=O` [Embelin] + Nc1ncn([C@H]2C[C@H](O)[C@@H](CO)O2)c(=O)n1 [Decitabine] (partner 2 µM), the relative viability worked out at 0.361.

`CCCCCCCCCCCC1=C(O)C(=O)C=C(O)C1=O` [Embelin] + COc1cccc2cc(-c3nc([C@H]4CC[C@H](C(=O)O)CC4)n4ncnc(N)c34)[nH]c12 [OSI-027] (partner 0.5 µM): the relative viability came to 0.656.

Regarding `CCCCCCCCCCCC1=C(O)C(=O)C=C(O)C1=O` [Embelin] + Nc1nc2[nH]cc(CCc3ccc(C(=O)N[C@@H](CCC(=O)O)C(=O)O)cc3)c2c(=O)[nH]1 [Pemetrexed] (partner 0.2 µM), the relative viability worked out at 0.748.

Values taken from the supplement of paper PMC10307832.
